Laboratory results: patent US10391166B2, “Short oligonucleotides as vaccine adjuvants and therapeutic agents” (priority 2013, dated 2019)
“Also recorded” adds a separate entry of the source.

What was measured:
[1] = system: interferon-β (IFN-β); experiment: IFN-β production from human lung epithelial A549 cells; type: cell-based
[2] = system: Vero; experiment: MTT cytotoxicity assay, Vero cells; type: cell-based; settings: 24-hour incubation
Excerpt: (§1) SDS was used as a positive cytotoxic control.

[3] = 14-day oral toxicity study in rats with two-week recovery; type: in vivo, Sprague-Dawley rats
Description: Necropsies were performed on Day 15 for rats in the main study group and on Day 28 for rats in the recovery group.

[4] = system: bacterial tester strains; experiment: Bacterial mutation test (screening version, pre-incubation); settings: up to 5000 μg/plate
Description: Study design: The test was performed on one occasion only. A subset of the standard tester strains (list strains) was used to evaluate the genotoxic potential of the test article.
The test article was formulated in dimethyl sulfoxide (DMSO) and tested at a maximum concentration of 5000 μg/plate (the standard limit dose for this assay) together with approximate half-log dilutions using the pre-incubation version of the bacterial mutation test. The absence of colonies on sterility check plates confirmed the absence of microbial contamination. The mean revertant colony counts for the vehicle controls were close to or within the laboratory historical control data. Appropriate positive control compounds (+/−S9 mix) induced increases in revertant colony numbers at least twice the concurrent vehicle control levels with the appropriate bacterial strain (1.5× for strain TA 100), confirming the sensitivity of the test system and activity of the S9 mix. […] No precipitation was observed.

[5] = system: IRF3-luciferase reporter gene; experiment: IRF3-luciferase reporter induction in HLE A549 cells (primary assay for NOD2 activation); type: cell-based, human; settings: 12 h incubation
Description: The evaluation of SMNH compounds for NOD2 activation was conducted by primary, secondary, and tertiary assays. In the primary assays, SMNH compounds were tested for the induction of IRF3 expression in HLE A549 cells, which are known to endogenously express NOD2. […] SB 44, a mixture of two isomers Rp and Sp, is a prodrug of SB 40. SB 1B—the Rp isomer of SB 44 and is shown as SB 44-1 in the FIGS. 1-2.
IRF3-luciferase transfected cells were incubated with either DMSO only (UT) or SMNH compounds (μM). Following 12 h incubation, luciferase activity was measured using Dual-Luciferase Reporter Assay System (Promega) according to the manufacturer's protocol. Transfection efficiency was normalized by measuring the expression of renilla Luciferase. Luciferase units (i.e., fold induction) were measured by standard methodology (mean±standard deviation; 3 independent experiments). The results are depicted in FIG. 1.

[6] = system: IL-1β; experiment: Mature IL-1β ELISA in mouse bone marrow derived primary macrophages; type: cell-based; settings: alone or with MDP or BCG, caspase blockade with ZVAD-fmk
Description: C57Bl/6 mouse bone marrow derived primary macrophages were treated with SB 1A or SB 1B alone, MDP alone or in combination as indicated for 4 hrs. BCG was used for infection for 4 hrs and supernatants collected 18 hr later titrated for mature IL1β using ELISA. Macrophages were first treated with ZVAD-fmk (2 hrs) for caspase blockade followed by activation with SB 1A and SB 1B (4 hrs) and BCG infection (4 hrs). Cytokine was measured 18 hrs later.

[7] = system: RIG-I and NOD2; type: cell-based; settings: receptor-deficient cells, exogenous RIG-I and NOD2
[8] = system: peripheral blood mononuclear cells (PBMCs); experiment: Multiplex assay for 28 cytokines in PBMCs; type: cell-based, human; settings: up to 50 μM
[9] = system: NF-kB; experiment: NF-kB-luciferase assay in HEK 293 cells transfected with RIGI and Nod2; type: cell-based; settings: 10 μM; 12 h incubation
Description: HEK 293 cells were transfected with RIGI, pcDNA, Nod2 and NF-kB-luciferase. The cells were then incubated with SB 44 (10 μM). Following 12 h incubation, Luciferase activity was measured as described previously. The Luciferase assay results are presented as mean±S.D. from three independent experiments.

[10] = system: Madin-Darby bovine kidney (MDBK); experiment: MTT cytotoxicity assay, MDBK cells; type: cell-based; settings: 24-hour incubation
Excerpt: as §1

[11] = system: M. tuberculosis; set-up: species or system C57Bl/6 mice; settings: mouse, in vivo
[12] = system: M. tuberculosis; set-up: species or system C57Bl/6 mice; settings: mouse, in vivo; remark: listed apart in the source

SMILES: COC1C(OP(=O)(OCC2OC(n3cnc4c(N)ncnc43)CC2O)SCOC(=O)OC(C)C)C(CO)OC1n1ccc(=O)[nH]c1=O (mixture of isomers) [SB 44]
- production of IFN-β [1]: induces production of interferon-β
- CC50 [2]: > 1000 µM
- no observed effect level (NOEL) ([3]; 14-day oral study): 50 mg/kg/day
- overt toxicity ([3]; 50, 200, 500 mg/kg/day oral for 14 days): did not cause overt toxicity
- thymus microscopic change ([3]; males and females at 200 and 500 mg/kg/day): Minimal to mild increases in thymic phagocytic macrophages
- toxicity to the bacteria (background lawn) [4]: non-toxic to the bacteria at the levels tested
- genotoxic activity (revertant colony counts) ([4]; absence or presence of S9 mix): did not show any evidence of genotoxic activity
- IRF3 activation (IRF3-luciferase) [5]: induced IRF3 activation
- induction of mature IL-1β [6]: induce IL-1β only in combination with either MDP or intact BCG bacilli
- enhancement of ISG-56 expression over that induced by PolyI-PolyC [7]: 2 fold
- cytokine induction in human PBMC cultures [8]: did not cause cytokine induction
- induction of NF-kB activity via RIGI and Nod2 activation [9]: induction of NF-kB activity; also recorded: induction of the transcription factor, NF-KB
- CC50 [10]: > 1000 µM
- antigen specific CD8 / memory T cells in lungs of re-challenged mice [11]: boost the magnitude of antigen specific memory T cells; also recorded: induces a robust expansion of antigen specific CD8 T cells
- protection against re-challenge of tuberculosis [11]: induce protection against re-challenge of tuberculosis in mice
- recall response against re-challenge with tuberculosis [11]: retain the ability to mount a better recall response
- Mtb counts of lungs [12]: reducing Mtb counts of lungs better than either BCG or MDP+BCG
- Mtb counts of spleens [12]: better than BCG vaccine in reducing Mtb counts of spleens
- adjuvant efficacy with BCG vaccine against tuberculosis [12]: better than muramyl dipeptide (MDP) as adjuvants
- anti-TB T cell function of mice [12]: dramatic increase in anti-TB T cell function of mice
- memory precursor T cells (MPECs) [12]: induces better memory precursor T cells (MPECs) than BCG vaccine
- tetramer specific CD8 T cells [12]: comparable levels of tetramer specific CD8 T cells
